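All cell lines were grown in 96-well plates and treated with compound for 48 hours. Here, GI50 denotes the concentration required for 50% inhibition of growth.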 Activity calls are given as the source filed them. Rule as the data show it: active = GI50 up to about 1.1 µM and inactive = higher. *1 amine or outer side, *2 acyl side, *3 side chain or, on linkers, in order; H or OH if unused. Where a SMILES comes first, the peptide text is derived from it. Bridges are numbered along the chain shown (N, C = ends). Roman numbers before positions name the chains, in order. [ ]: non-standard residue; d: D form. Actinocin(1to9) = Cc1c2oc3c(C)ccc(C(=O)[*:2])c3nc-2c(C(=O)[*:1])c(N)c1=O; NMeV = CN[CH](C(=O)O)C(C)C; Sar = CNCC(=O)O
How the values were obtained:
Assay in all cases: NCI anticancer screen, dose series, 48 h
RXF 393 = tested on: RXF 393
M14 = tested on: M14
KM12 = tested on: KM12
SF-268 = tested on: SF-268
MDA-MB-231 = tested on: MDA-MB-231
SK-OV-3 = tested on: SK-OV-3
SK-MEL-28 = tested on: SK-MEL-28
SW-620 = tested on: SW-620
NCI-H23 = tested on: NCI-H23
PC-3 = tested on: PC-3
U-251 = tested on: U-251
SR = tested on: SR
TK-10 = tested on: TK-10
OVCAR-3 = tested on: OVCAR-3
SN12C = tested on: SN12C
HT-29 = tested on: HT-29
BT-549 = tested on: BT-549
SNB-75 = tested on: SNB-75
RPMI-8226 = tested on: RPMI-8226
HOP-62 = tested on: HOP-62

| Compound | GI50 (RXF 393) | GI50 (M14) | GI50 (KM12) | GI50 (SF-268) | GI50 (MDA-MB-231) | GI50 (SK-OV-3) | GI50 (SK-MEL-28) | GI50 (SW-620) | GI50 (NCI-H23) | GI50 (PC-3) | GI50 (U-251) | GI50 (SR) | GI50 (TK-10) | GI50 (OVCAR-3) | GI50 (SN12C) | GI50 (HT-29) | GI50 (BT-549) | GI50 (SNB-75) | GI50 (RPMI-8226) | GI50 (HOP-62) |
| --- | --- | --- | --- | --- | --- | --- | --- | --- | --- | --- | --- | --- | --- | --- | --- | --- | --- | --- | --- | --- |
| COC(=O)c1c(O)ccc2c1c1c(n2C)C(=O)c2ccccc2C1=O | 15.4 µM (inactive) | 49.2 µM (inactive) | 57.7 µM (inactive) | 13.8 µM (inactive) | 10 µM (inactive) | 6.19 µM (inactive) | 32.7 µM (inactive) | 59.4 µM (inactive) | 19.7 µM (inactive) | 23.3 µM (inactive) | 15.7 µM (inactive) | 16.2 µM (inactive) | 26.7 µM (inactive) | 35.3 µM (inactive) | 11.9 µM (inactive) | 78.2 µM (inactive) | 10.4 µM (inactive) | 2.48 µM (inactive) | 4.78 µM (inactive) | 14.8 µM (inactive) |
| O=c1c2c(nc3[nH]ccn13)CCC2 | > 10 µM (inactive) | > 10 µM (inactive) | > 10 µM (inactive) | > 10 µM (inactive) | > 10 µM (inactive) | > 10 µM (inactive) | > 10 µM (inactive) | > 10 µM (inactive) | > 10 µM (inactive) | > 10 µM (inactive) | > 10 µM (inactive) | > 10 µM (inactive) | > 10 µM (inactive) | > 10 µM (inactive) | > 10 µM (inactive) | > 10 µM (inactive) | > 10 µM (inactive) | > 10 µM (inactive) | > 10 µM (inactive) | > 10 µM (inactive) |
| CCC(C)C1NC(=O)C(NC(=O)c2c3nc4c(C(=O)NC5C(=O)NC(C(C)C)C(=O)N6CCCC6C(=O)N(C)CC(=O)N(C)C(C(C)C)C(=O)OC5C)ccc(C)c4oc-3c(C)c(=O)c2N)C(C)OC(=O)C(C(C)C)N(C)C(=O)CN(C)C(=O)C2CCCN2C1=O (stereo not given) (I: TIP[Sar][NMeV] / II: TVP[Sar][NMeV]; ester I:1-I:C, II:1-II:C; linker I:N-II:N via Actinocin(1to9); configuration not given here) | 0.01 µM (active) | 0.00269 µM (active) | 0.00016 µM (active) | 0.000916 µM (active) | 0.000173 µM (active) | 0.0152 µM (active) | 0.000733 µM (active) | < 0.0001 µM (active) | 0.000697 µM (active) | 0.000346 µM (active) | < 0.0001 µM (active) | 0.000244 µM (active) | 0.0137 µM (active) | 0.0185 µM (active) | 0.000388 µM (active) | < 0.0001 µM (active) | 0.00247 µM (active) | 0.00762 µM (active) | < 0.0001 µM (active) | 0.000594 µM (active) |
| O=C(O)[C@@H]1CCCN1 [PROLINE] | > 100 µM (inactive) | > 100 µM (inactive) | > 100 µM (inactive) | > 100 µM (inactive) | > 100 µM (inactive) | > 100 µM (inactive) | > 100 µM (inactive) | > 100 µM (inactive) | > 100 µM (inactive) | > 100 µM (inactive) | > 100 µM (inactive) | > 100 µM (inactive) | > 100 µM (inactive) | > 100 µM (inactive) | > 100 µM (inactive) | > 100 µM (inactive) | > 100 µM (inactive) | 57.4 µM (inactive) | > 100 µM (inactive) | > 100 µM (inactive) |

Reference: ChEMBL document CHEMBL1201862, “PubChem BioAssay data set” (2004)
